Results reported in the CheMixHub viscosity set.

Test: xn = mol fraction of the nth substance listed

CC#N + O
Conditions | viscosity [mPa·s]
293.15 K, 101 kPa, x1 = 0.032 | 1.095
293.15 K, 101 kPa, x1 = 0.057 | 1.11
293.15 K, 101 kPa, x1 = 0.097 | 1.103
293.15 K, 101 kPa, x1 = 0.154 | 1.023
293.15 K, 101 kPa, x1 = 0.2 | 0.963
293.15 K, 101 kPa, x1 = 0.395 | 0.723
293.15 K, 101 kPa, x1 = 0.596 | 0.516
293.15 K, 101 kPa, x1 = 0.8 | 0.413
293.15 K, 101.33 kPa, x1 = 0.03 | 1.091
293.15 K, 101.33 kPa, x1 = 0.06 | 1.124
293.15 K, 101.33 kPa, x1 = 0.12 | 1.105
293.15 K, 101.33 kPa, x1 = 0.22 | 1.029
293.15 K, 101.33 kPa, x1 = 0.29 | 0.9338
293.15 K, 101.33 kPa, x1 = 0.37 | 0.7979
293.15 K, 101.33 kPa, x1 = 0.43 | 0.722
293.15 K, 101.33 kPa, x1 = 0.61 | 0.5948
293.15 K, 101.33 kPa, x1 = 0.7 | 0.5389
293.15 K, 101.33 kPa, x1 = 0.87 | 0.4657
298.15 K, 101 kPa, x1 = 0.046 | 0.867
298.15 K, 101 kPa, x1 = 0.1 | 0.862
298.15 K, 101 kPa, x1 = 0.2 | 0.858
298.15 K, 101 kPa, x2 = 0.2626 | 0.42
298.15 K, 101 kPa, x2 = 0.4466 | 0.517
298.15 K, 101 kPa, x2 = 0.4952 | 0.554
298.15 K, 101 kPa, x2 = 0.6032 | 0.651
298.15 K, 101 kPa, x2 = 0.613 | 0.66
298.15 K, 101 kPa, x2 = 0.6508 | 0.669
298.15 K, 101 kPa, x2 = 0.7029 | 0.754
298.15 K, 101 kPa, x2 = 0.7445 | 0.801
298.15 K, 101 kPa, x2 = 0.7543 | 0.815
298.15 K, 101.3 kPa, x1 = 0.025 | 0.9497
298.15 K, 101.3 kPa, x1 = 0.05 | 0.9779
298.15 K, 101.3 kPa, x1 = 0.075 | 0.9826
298.15 K, 101.3 kPa, x1 = 0.1 | 0.9704
298.15 K, 101.3 kPa, x1 = 0.2019 | 0.8706
298.15 K, 101.33 kPa, x2 = 0.1028 | 0.375
298.15 K, 101.33 kPa, x2 = 0.2071 | 0.402
298.15 K, 101.33 kPa, x2 = 0.297 | 0.436
298.15 K, 101.33 kPa, x2 = 0.4021 | 0.495
298.15 K, 101.33 kPa, x2 = 0.4985 | 0.563
298.15 K, 101.33 kPa, x2 = 0.6057 | 0.656
298.15 K, 101.33 kPa, x2 = 0.6987 | 0.75
298.15 K, 101.33 kPa, x2 = 0.7843 | 0.842
298.15 K, 101.33 kPa, x2 = 0.8773 | 0.94
303.15 K, 101 kPa, x1 = 0.032 | 0.861
303.15 K, 101 kPa, x1 = 0.0498 | 0.8684
303.15 K, 101 kPa, x1 = 0.057 | 0.872
303.15 K, 101 kPa, x1 = 0.065 | 0.8736
303.15 K, 101 kPa, x1 = 0.084 | 0.8728
303.15 K, 101 kPa, x1 = 0.097 | 0.868
303.15 K, 101 kPa, x1 = 0.1498 | 0.8314
303.15 K, 101 kPa, x1 = 0.154 | 0.815
303.15 K, 101 kPa, x1 = 0.2 | 0.774
303.15 K, 101 kPa, x1 = 0.2534 | 0.7376
303.15 K, 101 kPa, x1 = 0.3831 | 0.6065
303.15 K, 101 kPa, x1 = 0.395 | 0.607
303.15 K, 101 kPa, x1 = 0.5071 | 0.5088
303.15 K, 101 kPa, x1 = 0.596 | 0.449
303.15 K, 101 kPa, x1 = 0.6075 | 0.4532
303.15 K, 101 kPa, x1 = 0.7039 | 0.4039
303.15 K, 101 kPa, x1 = 0.8 | 0.372
303.15 K, 101 kPa, x1 = 0.8042 | 0.3676
303.15 K, 101 kPa, x1 = 0.894 | 0.3442
308.15 K, 101 kPa, x1 = 0.046 | 0.707
308.15 K, 101 kPa, x1 = 0.0498 | 0.7729
308.15 K, 101 kPa, x1 = 0.065 | 0.7826
308.15 K, 101 kPa, x1 = 0.084 | 0.7812
308.15 K, 101 kPa, x1 = 0.1 | 0.705
308.15 K, 101 kPa, x1 = 0.1498 | 0.7485
308.15 K, 101 kPa, x1 = 0.2 | 0.697
308.15 K, 101 kPa, x1 = 0.2534 | 0.67
308.15 K, 101 kPa, x1 = 0.3831 | 0.5596
308.15 K, 101 kPa, x1 = 0.5071 | 0.4711
308.15 K, 101 kPa, x1 = 0.6075 | 0.4236
308.15 K, 101 kPa, x1 = 0.7039 | 0.3804
308.15 K, 101 kPa, x1 = 0.8042 | 0.3486
308.15 K, 101 kPa, x1 = 0.894 | 0.3278
313.15 K, 101 kPa, x1 = 0.032 | 0.698
313.15 K, 101 kPa, x1 = 0.0498 | 0.6998
313.15 K, 101 kPa, x1 = 0.057 | 0.707
313.15 K, 101 kPa, x1 = 0.065 | 0.7058
313.15 K, 101 kPa, x1 = 0.084 | 0.7062
313.15 K, 101 kPa, x1 = 0.097 | 0.707
313.15 K, 101 kPa, x1 = 0.1498 | 0.6782
313.15 K, 101 kPa, x1 = 0.154 | 0.668
313.15 K, 101 kPa, x1 = 0.2 | 0.641
313.15 K, 101 kPa, x1 = 0.2534 | 0.612
313.15 K, 101 kPa, x1 = 0.3831 | 0.5157
313.15 K, 101 kPa, x1 = 0.395 | 0.516
313.15 K, 101 kPa, x1 = 0.5071 | 0.441
313.15 K, 101 kPa, x1 = 0.596 | 0.399
313.15 K, 101 kPa, x1 = 0.6075 | 0.3978
313.15 K, 101 kPa, x1 = 0.7039 | 0.3598
313.15 K, 101 kPa, x1 = 0.8 | 0.34
313.15 K, 101 kPa, x1 = 0.8042 | 0.3318
313.15 K, 101 kPa, x1 = 0.894 | 0.3132
318.15 K, 101 kPa, x1 = 0.046 | 0.584
318.15 K, 101 kPa, x1 = 0.0498 | 0.635
318.15 K, 101 kPa, x1 = 0.065 | 0.6402
318.15 K, 101 kPa, x1 = 0.084 | 0.6409
318.15 K, 101 kPa, x1 = 0.1 | 0.58
318.15 K, 101 kPa, x1 = 0.1498 | 0.6185
318.15 K, 101 kPa, x1 = 0.2 | 0.578
318.15 K, 101 kPa, x1 = 0.2534 | 0.5635
318.15 K, 101 kPa, x1 = 0.3831 | 0.4801
318.15 K, 101 kPa, x1 = 0.5071 | 0.4101
318.15 K, 101 kPa, x1 = 0.6075 | 0.3754
318.15 K, 101 kPa, x1 = 0.7039 | 0.3408
318.15 K, 101 kPa, x1 = 0.894 | 0.2996
323.15 K, 101 kPa, x1 = 0.032 | 0.579
323.15 K, 101 kPa, x1 = 0.0498 | 0.5802
323.15 K, 101 kPa, x1 = 0.057 | 0.587
323.15 K, 101 kPa, x1 = 0.097 | 0.589
323.15 K, 101 kPa, x1 = 0.154 | 0.561
323.15 K, 101 kPa, x1 = 0.2 | 0.54
323.15 K, 101 kPa, x1 = 0.395 | 0.447
323.15 K, 101 kPa, x1 = 0.596 | 0.356
323.15 K, 101 kPa, x1 = 0.8 | 0.312
